Results reported in patent publication US20130217578A1, “Growth inhibition of perennial forage grasses with Pyroxsulam” (Dow AgroSciences LLC, priority 2010, published 2013).

What was measured:
Assay type in all cases: in vivo
[1] = test system: All grass species combined (CRFescue, Brome Grass, Quackgrass); assay: Field trial: biomass reduction of pyroxsulam-treated vs untreated grass; conditions: 30 DAA
Experimental: Trials were conducted under field conditions in Canada. Trial sites were located in perennial forage grass areas. Forage grasses tested included: Bromegrass, Timothy Fescue and Wheatgrass species, including: meadow Bromegrass (BROCO, Bromus commutatus), smooth Brome grass (BROIN, Bromus inermus), Timothy (PHLPR, Phleum pretense), creeping red Fescue (FESRU, Festuca rubra), Tall Fescue (FESAR, Festuca arundinacea), and Western Wheatgrass (AGRSM, Agropyron smithii). The grasses were grown using normal cultural practices for fertilization, seeding, and maintenance to ensure good growth of the grasses. The trials were conducted using normal research methodology. Trial plots were between 2 to 5 meters (m) wide by 5 to 20 m long. All treatments were applied using a randomized complete block trial design with 3 or 4 replications per treatment. The trial sites had populations of homogeneous or heterogeneous perennial forage grass species present. […]
The treated plots and control plots were rated blind at various intervals after application. […] Quantitative measurements were also taken at various intervals after application, and measured in cm or inches height of leaf blade top height from the ground.

[2] = test system: creeping red Fescue (FESRU, Festuca rubra); assay: Field trial: percent growth inhibition of creeping red Fescue
Experimental: (§1) Trials were conducted under field conditions in Canada. Trial sites were located in perennial forage grass areas. Forage grasses tested included: Bromegrass, Timothy Fescue and Wheatgrass species, including: meadow Bromegrass (BROCO, Bromus commutatus), smooth Brome grass (BROIN, Bromus inermus), Timothy (PHLPR, Phleum pretense), creeping red Fescue (FESRU, Festuca rubra), Tall Fescue (FESAR, Festuca arundinacea), and Western Wheatgrass (AGRSM, Agropyron smithii). The grasses were grown using normal cultural practices for fertilization, seeding, and maintenance to ensure good growth of the grasses. The trials were conducted using normal research methodology. Trial plots were between 2 to 5 meters (m) wide by 5 to 20 m long. All treatments were applied using a randomized complete block trial design with 3 or 4 replications per treatment. The trial sites had populations of homogeneous or heterogeneous perennial forage grass species present. Treatments consisted of pyroxsulam formulations (Simplicity® (trademark of Dow AgroSciences LLC for pyroxsulam+cloquintocet) or water-dispersible formulations of pyroxsulam) alone, or in tank mixes with Milestone® herbicide (trademark of Dow AgroSciences LLC for aminopyralid) or ClearView® herbicide (trademark of Dow AgroSciences LLC for aminopyralid+metsulfuron-methyl) with or without 2,4-D ester applied in water. Adjuvants were applied at 0.2% to 0.5% V/V. The application volumes were between 50 to 200 liters per hectare (L/ha). All application were made using precision gas hand sprayers or calibrated ATV sprayer using a 2 or 5 m boom using flat fan (80° or 110°) nozzles to broadcast the treatments post-emergent on the vegetation or soil.
(§2) The treated plots and control plots were rated blind at various intervals after application. Ratings were based on Percent (%) Visual growth suppression (reduction) from untreated grass, where […] or growth inhibition compared to the untreated grass growth. Quantitative measurements were also taken at various intervals after application, and measured in cm or inches height of leaf blade top height from the ground.

[3] = test system: meadow Bromegrass (BROCO, Bromus commutatus); assay: Field trial: height of meadow Bromegrass after pyroxsulam application; conditions: for Height (cm): mean of 3 replicates
Experimental: as §1, §2

[4] = 15 g ai/ha, 0 days after application
[5] = 15 g ai/ha, 7 days after application
[6] = 15 g ai/ha, 14 days after application
[7] = 15 g ai/ha, 21 days after application
[8] = 15 g ai/ha, 30 days after application
[9] = 15 g ai/ha, 37 days after application
[10] = 15 g ai/ha, 42 days after application
[11] = 15 g ai/ha, 50 days after application
[12] = 15 g ai/ha, 56 days after application
[13] = 15 g ai/ha, 65 days after application
[14] = 15 g ai/ha, 72 days after application
[15] = 30 g ai/ha, 0 days after application
[16] = 30 g ai/ha, 7 days after application
[17] = 30 g ai/ha, 14 days after application
[18] = 30 g ai/ha, 21 days after application
[19] = 30 g ai/ha, 30 days after application
[20] = 30 g ai/ha, 37 days after application
[21] = 30 g ai/ha, 42 days after application
[22] = 30 g ai/ha, 50 days after application
[23] = 30 g ai/ha, 56 days after application
[24] = 30 g ai/ha, 65 days after application
[25] = 30 g ai/ha, 72 days after application

COc1cc(OC)n2nc(NS(=O)(=O)c3c(C(F)(F)F)ccnc3OC)nc2n1 [Pyroxsulam, N-(5,7-dimethoxy[1,2,4]-triazolo[1,5-α]pyrimidin-2-yl)-2-methoxy-4-(trifluoromethyl)-3-pyridinesulfonamide]
Biomass reduction (%) ([1]; 15 g/ha): 40%
Biomass reduction (%) ([1]; 30 g/ha): 38%
% Growth Inhibition ([2]; 15 g ai/ha, week 1): 0%
% Growth Inhibition ([2]; 15 g ai/ha, week 2): 7%
% Growth Inhibition ([2]; 15 g ai/ha, week 3): 35%
% Growth Inhibition ([2]; 15 g ai/ha, week 4): 30%
% Growth Inhibition ([2]; 15 g ai/ha, week 5): 23%
% Growth Inhibition ([2]; 15 g ai/ha, week 6): 21%
% Growth Inhibition ([2]; 15 g ai/ha, week 7): 15%
% Growth Inhibition ([2]; 15 g ai/ha, week 8): 4%
% Growth Inhibition ([2]; 15 g ai/ha, week 9): 8%
% Growth Inhibition ([2]; 15 g ai/ha, week 10): 12%
% Growth Inhibition ([2]; 30 g ai/ha, week 1): 0%
% Growth Inhibition ([2]; 30 g ai/ha, week 2): 14%
% Growth Inhibition ([2]; 30 g ai/ha, week 3): 35%
% Growth Inhibition ([2]; 30 g ai/ha, week 4): 32%
% Growth Inhibition ([2]; 30 g ai/ha, week 5): 32%
% Growth Inhibition ([2]; 30 g ai/ha, week 6): 21%
% Growth Inhibition ([2]; 30 g ai/ha, week 7): 19%
% Growth Inhibition ([2]; 30 g ai/ha, week 8): 12%
% Growth Inhibition ([2]; 30 g ai/ha, week 9): 4%
% Growth Inhibition ([2]; 30 g ai/ha, week 10): 12%
Height (% of Untreated) [3, 4]: 100.0%
Height (cm) [3, 4]: 20 cm
Height (% of Untreated) [3, 5]: 57.1%
Height (cm) [3, 5]: 20 cm
Height (% of Untreated) [3, 6]: 50.0%
Height (cm) [3, 6]: 25 cm
Height (% of Untreated) [3, 7]: 47.6%
Height (cm) [3, 7]: 30 cm
Height (% of Untreated) [3, 8]: 45.0%
Height (cm) [3, 8]: 27 cm
Height (% of Untreated) [3, 9]: 43.1%
Height (cm) [3, 9]: 28 cm
Height (% of Untreated) [3, 10]: 45.2%
Height (cm) [3, 10]: 33 cm
Height (% of Untreated) [3, 11]: 53.8%
Height (cm) [3, 11]: 42 cm
Height (% of Untreated) [3, 12]: 52.4%
Height (cm) [3, 12]: 43 cm
Height (% of Untreated) [3, 13]: 58.5%
Height (cm) [3, 13]: 48 cm
Height (% of Untreated) [3, 14]: 76.8%
Height (cm) [3, 14]: 63 cm
Height (% of Untreated) [3, 15]: 100.0%
Height (cm) [3, 15]: 20 cm
Height (% of Untreated) [3, 16]: 57.1%
Height (cm) [3, 16]: 20 cm
Height (% of Untreated) [3, 17]: 50.0%
Height (cm) [3, 17]: 25 cm
Height (% of Untreated) [3, 18]: 44.4%
Height (cm) [3, 18]: 28 cm
Height (% of Untreated) [3, 19]: 41.7%
Height (cm) [3, 19]: 25 cm
Height (% of Untreated) [3, 20]: 38.5%
Height (cm) [3, 20]: 25 cm
Height (% of Untreated) [3, 21]: 45.2%
Height (cm) [3, 21]: 33 cm
Height (% of Untreated) [3, 22]: 51.3%
Height (cm) [3, 22]: 40 cm
Height (% of Untreated) [3, 23]: 51.2%
Height (cm) [3, 23]: 42 cm
Height (% of Untreated) [3, 24]: 52.4%
Height (cm) [3, 24]: 43 cm
Height (% of Untreated) [3, 25]: 57.3%
Height (cm) [3, 25]: 47 cm
